Species on record: Rattus norvegicus
Assay: Open TG-GATES - Regimen: Single
Type: toxicity, organism-based, Sprague-Dawley
Design: regimen Single, gender Male, age 6 weeks
Conditions: in vivo, po, 0 mg/kg, route gavage, dose level Control; for APTT / Bas / Eos / Fbg / Hb / Ht / Lym / MCH / MCHC / MCV / Mono / Neu / PT / Plat / RBC / Ret / WBC: tissue Blood; for KIDNEY_L / KIDNEY_R / KIDNEY_TOTAL: tissue Kidney; for LIVER: tissue Liver; for A/G / ALP / ALT / AST / BUN / CRE / Ca / Cl / DBIL / GLC / IP / K / LDH / Na / PL / RALB / TBIL / TC / TG / TP / gamma-GTP: tissue Plasma

Compound: Brc1ccccc1 [BROMOBENZENE]
- TERMINAL_BW (3 h): 190.9 g
- APTT (3 h): 15.7 s
- Bas (3 h): 0.2%
- Eos (3 h): 0.8%
- Fbg (3 h): 247.4 mg/dL
- Hb (3 h): 13.1 g/dL
- Ht (3 h): 39.4%
- Lym (3 h): 72.8%
- MCH (3 h): 21.2 pg
- MCHC (3 h): 33.2%
- MCV (3 h): 63.8 fL
- Mono (3 h): 4.2%
- Neu (3 h): 21.6%
- PT (3 h): 12.4 s
- Plat (3 h): 117.7 x10_4/uL
- RBC (3 h): 618.4 x10_4/ul
- Ret (3 h): 9.8%
- WBC (3 h): 108.2 x10_2/uL
- KIDNEY_L (3 h): 0.9 g
- KIDNEY_R (3 h): 0.8 g
- KIDNEY_TOTAL (3 h): 1.7 g
- LIVER (3 h): 8.1 g
- A/G (3 h): 0.9
- ALP (3 h): 1539.4 IU/L
- ALT (3 h): 46.2 IU/L
- AST (3 h): 83.2 IU/L
- BUN (3 h): 10.2 mg/dL
- CRE (3 h): 0.2 mg/dL
- Ca (3 h): 11.2 mg/dL
- Cl (3 h): 106.2 meq/L
- DBIL (3 h): 0.022 mg/dL
- GLC (3 h): 186.4 mg/dL
- IP (3 h): 9.4 mg/dL
- K (3 h): 3.8 meq/L
- LDH (3 h): 84.2 IU/L
- Na (3 h): 141.6 meq/L
- PL (3 h): 159.2 mg/dL
- RALB (3 h): 2.6 g/dL
- TBIL (3 h): 0.058 mg/dL
- TC (3 h): 83.6 mg/dL
- TG (3 h): 88.4 mg/dL
- TP (3 h): 5.5 g/dL
- gamma-GTP (3 h): 2 IU/L
- TERMINAL_BW (6 h): 191.8 g
- APTT (6 h): 15.7 s
- Bas (6 h): 0%
- Eos (6 h): 1%
- Fbg (6 h): 276.2 mg/dL
- Hb (6 h): 13 g/dL
- Ht (6 h): 39.1%
- Lym (6 h): 75.8%
- MCH (6 h): 21.4 pg
- MCHC (6 h): 33.3%
- MCV (6 h): 64.3 fL
- Mono (6 h): 3.8%
- Neu (6 h): 19.2%
- PT (6 h): 12.4 s
- Plat (6 h): 109.8 x10_4/uL
- RBC (6 h): 608.2 x10_4/ul
- Ret (6 h): 9.3%
- WBC (6 h): 92.3 x10_2/uL
- KIDNEY_L (6 h): 0.8 g
- KIDNEY_R (6 h): 0.8 g
- KIDNEY_TOTAL (6 h): 1.6 g
- LIVER (6 h): 7.6 g
- A/G (6 h): 0.9
- ALP (6 h): 1707 IU/L
- ALT (6 h): 40.8 IU/L
- AST (6 h): 76.6 IU/L
- BUN (6 h): 9.2 mg/dL
- CRE (6 h): 0.2 mg/dL
- Ca (6 h): 11 mg/dL
- Cl (6 h): 107.4 meq/L
- DBIL (6 h): 0.01 mg/dL
- GLC (6 h): 184.2 mg/dL
- IP (6 h): 10 mg/dL
- K (6 h): 4 meq/L
- LDH (6 h): 69.6 IU/L
- Na (6 h): 141.4 meq/L
- PL (6 h): 149.2 mg/dL
- RALB (6 h): 2.6 g/dL
- TBIL (6 h): 0.054 mg/dL
- TC (6 h): 83.2 mg/dL
- TG (6 h): 37.8 mg/dL
- TP (6 h): 5.5 g/dL
- gamma-GTP (6 h): 1.2 IU/L
- TERMINAL_BW (9 h): 191.1 g
- APTT (9 h): 15.4 s
- Bas (9 h): 0%
- Eos (9 h): 1%
- Fbg (9 h): 258.4 mg/dL
- Hb (9 h): 12.9 g/dL
- Ht (9 h): 38.8%
- Lym (9 h): 74.8%
- MCH (9 h): 21.5 pg
- MCHC (9 h): 33.4%
- MCV (9 h): 64.4 fL
- Mono (9 h): 3%
- Neu (9 h): 21.2%
- PT (9 h): 12.3 s
- Plat (9 h): 120.5 x10_4/uL
- RBC (9 h): 603 x10_4/ul
- Ret (9 h): 9.6%
- WBC (9 h): 75.5 x10_2/uL
- KIDNEY_L (9 h): 0.8 g
- KIDNEY_R (9 h): 0.8 g
- KIDNEY_TOTAL (9 h): 1.6 g
- LIVER (9 h): 7.4 g
- A/G (9 h): 0.9
- ALP (9 h): 1515.4 IU/L
- ALT (9 h): 36.2 IU/L
- AST (9 h): 70.2 IU/L
- BUN (9 h): 11.4 mg/dL
- CRE (9 h): 0.2 mg/dL
- Ca (9 h): 10.8 mg/dL
- Cl (9 h): 105.8 meq/L
- DBIL (9 h): 0.006 mg/dL
- GLC (9 h): 193.4 mg/dL
- IP (9 h): 11.8 mg/dL
- K (9 h): 3.6 meq/L
- LDH (9 h): 81.2 IU/L
- Na (9 h): 143.2 meq/L
- PL (9 h): 146.8 mg/dL
- RALB (9 h): 2.6 g/dL
- TBIL (9 h): 0.052 mg/dL
- TC (9 h): 84.2 mg/dL
- TG (9 h): 39.6 mg/dL
- TP (9 h): 5.6 g/dL
- gamma-GTP (9 h): 1.4 IU/L
- TERMINAL_BW (24 h): 196.6 g
- APTT (24 h): 15.4 s
- Bas (24 h): 0%
- Eos (24 h): 1%
- Fbg (24 h): 270.2 mg/dL
- Hb (24 h): 12.6 g/dL
- Ht (24 h): 37.4%
- Lym (24 h): 74.6%
- MCH (24 h): 21.1 pg
- MCHC (24 h): 33.8%
- MCV (24 h): 62.6 fL
- Mono (24 h): 3.4%
- Neu (24 h): 19.8%
- PT (24 h): 12.3 s
- Plat (24 h): 114.7 x10_4/uL
- RBC (24 h): 598.2 x10_4/ul
- Ret (24 h): 8.1%
- WBC (24 h): 81.7 x10_2/uL
- KIDNEY_L (24 h): 0.8 g
- KIDNEY_R (24 h): 0.8 g
- KIDNEY_TOTAL (24 h): 1.7 g
- LIVER (24 h): 8.7 g
- A/G (24 h): 0.9
- ALP (24 h): 1600.6 IU/L
- ALT (24 h): 50.8 IU/L
- AST (24 h): 79.6 IU/L
- BUN (24 h): 14.2 mg/dL
- CRE (24 h): 0.2 mg/dL
- Ca (24 h): 10.5 mg/dL
- Cl (24 h): 105.2 meq/L
- DBIL (24 h): 0.004 mg/dL
- GLC (24 h): 187.4 mg/dL
- IP (24 h): 8 mg/dL
- K (24 h): 4.2 meq/L
- LDH (24 h): 114.4 IU/L
- Na (24 h): 141.4 meq/L
- PL (24 h): 136.8 mg/dL
- RALB (24 h): 2.6 g/dL
- TBIL (24 h): 0.04 mg/dL
- TC (24 h): 76.8 mg/dL
- TG (24 h): 55.4 mg/dL
- TP (24 h): 5.5 g/dL
- gamma-GTP (24 h): 1.4 IU/L

Reference: ChEMBL document CHEMBL3885861, “Open TG-GATES”
